The values that follow come from ChEMBL document CHEMBL3044769, “A brief synthesis of natural antifeedant, 1-(2,4,6-trimethoxyphenyl) but-2(E)-en-1-one” (1994).

The subject of this test is Spodoptera litura. Nature of the test: Antifeedant activity in Spodoptera litura assessed as feeding ratio at 0.1% of the diet. It is filed as functional.

In the case of `C/C=C/C(=O)c1c(OC)cc(OC)cc1OC`, the Activity stood at 50.5%.
